In ChEMBL document CHEMBL1201862, “PubChem BioAssay data set” (2004):
Activity calls are given as the source filed them.

What was measured:
[1] = target: T1, Heat shock factor protein 1 (Mus musculus, UniProt P38532); test: HSF1 potentiators in luciferase reporter cells, confirmation, cell-based, NIH3T3, luminescence, dose retest (AID 435004); format: functional;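 further: stress induced by proteasome inhibitor MG132 added 30 min after compound; luciferase reporter driven by HSF1 response element in NIH3T3 cells; actives raise luminescence as potentiators of the MG132 stress response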
T1 sequence (P38532 whole entry): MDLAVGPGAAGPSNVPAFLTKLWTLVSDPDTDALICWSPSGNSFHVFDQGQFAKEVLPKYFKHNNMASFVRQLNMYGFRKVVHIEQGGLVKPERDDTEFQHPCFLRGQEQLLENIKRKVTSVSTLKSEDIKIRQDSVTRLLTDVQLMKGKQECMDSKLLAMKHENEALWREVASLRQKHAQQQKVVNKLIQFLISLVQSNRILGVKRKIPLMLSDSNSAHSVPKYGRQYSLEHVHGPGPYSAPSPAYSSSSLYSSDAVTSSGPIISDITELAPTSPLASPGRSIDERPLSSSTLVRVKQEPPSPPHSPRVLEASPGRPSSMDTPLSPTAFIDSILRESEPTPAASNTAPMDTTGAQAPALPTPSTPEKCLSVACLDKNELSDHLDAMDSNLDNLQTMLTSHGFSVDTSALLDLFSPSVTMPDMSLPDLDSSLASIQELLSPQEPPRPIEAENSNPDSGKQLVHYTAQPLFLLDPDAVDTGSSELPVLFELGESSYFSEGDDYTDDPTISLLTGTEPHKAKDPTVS

Cytochrome P450 2D6 = Cytochrome P450 2D6 (Homo sapiens, UniProt P10635);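 further: CYP2D6 member of a cytochrome P450 panel assay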
Cytochrome P450 2C19 = Cytochrome P450 2C19 (Homo sapiens, UniProt P33261); test: Cytochrome panel assay with activity outcomes. Panel member name: p450-cyp2c19 Compounds with AC50 equal or less than 10 uM are considered active; format: functional
cells [2] = format: functional, cell-based
cells [3] = format: functional, cell-based; remark: listed apart in the source
[4] = target: T2, Polyadenylate-binding protein 1 (Homo sapiens, UniProt P11940); test: PABP1 MLLE–PAM2 binding inhibitor potency, dose response, biochemical, fluorescence polarization, FITC-PAM2 peptide (AID 602259); format: functional; settings: read-out: IC50_Mean
[5] = target: T2, Polyadenylate-binding protein 1; test: PABP1 MLLE–PAM2 interaction inhibitors, dose response, miRNA deadenylation inhibitor project, biochemical, fluorescence polarization, Cy5-PAM2 peptide, secondary (AID 602260); format: functional; settings: read-out: IC50_Mean
Vero = test: cells; format: functional; settings: Chlorocebus sabaeus
Streptococcus = test: Group A Streptococcus viability loss, dose response, counter-screen for streptokinase expression inhibitor project, luminescence, BacTiterGlo (AID 1915); format: functional, organism-based;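 further: potency for reduction of bacterial viability or growth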
[6] = inhibitors of firefly luciferase expression or activity, dose response, H4 neuroglioma cells, luminescence (AID 1990); format: functional, cell-based
BJ [7] = test: cytotoxicity toward BJ-TERT fibroblasts, dose response, cell-based, RAS-independent, luminescence (AID 1933); format: functional; settings: Homo sapiens
[8] = cytotoxicity toward DRD oncogenic fibroblasts, dose response, cell-based, non-viral oncogenic, luminescence (AID 1934); format: functional; settings: Homo sapiens
[9] = Luminescence Cell-Based Dose Response HTS to Identify Inhibitors of 5'UTR Stem-Loop Driven Prion Protein mRNA Translation in H4 Neuroglioblastoma Cells. [Related pubchem assays: 1827 (Project Summary), 1813 (Primary HTS)]; format: functional
Streptokinase A = target: T3, Streptokinase A (Streptococcus pyogenes serotype M1, UniProt P10520); test: S. pyogenes streptokinase expression inhibitors, potency, dose response, plasminogen activation absorbance, OD405 (AID 1914); format: functional, Streptococcus pyogenes M1 GAS;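 further: secreted streptokinase activity via plasminogen activation per viability signal from cell pellet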
T3 sequence (P10520 whole entry): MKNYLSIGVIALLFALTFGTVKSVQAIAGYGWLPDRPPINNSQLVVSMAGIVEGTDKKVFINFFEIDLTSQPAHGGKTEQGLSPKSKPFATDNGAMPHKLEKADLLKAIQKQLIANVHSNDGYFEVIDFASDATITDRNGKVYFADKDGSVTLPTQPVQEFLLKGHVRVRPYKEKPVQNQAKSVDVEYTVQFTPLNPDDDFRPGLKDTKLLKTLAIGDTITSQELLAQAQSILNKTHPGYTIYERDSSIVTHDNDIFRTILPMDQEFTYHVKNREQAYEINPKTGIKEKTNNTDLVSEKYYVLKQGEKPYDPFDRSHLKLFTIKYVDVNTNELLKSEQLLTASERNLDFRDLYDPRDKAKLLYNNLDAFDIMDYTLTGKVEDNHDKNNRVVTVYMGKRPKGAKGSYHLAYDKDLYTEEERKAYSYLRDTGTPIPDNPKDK

[10] = inhibitors of SNCA 5'UTR-driven reporter translation, confirmation, H4 neuroglioma cells, luminescence (AID 1988); format: functional, cell-based
[11] = test system: Streptococcus sp. 'group A'; test: growth inhibition of control SK(-) GAS strain, dose response, counter-screen for streptokinase expression inhibitor project, luminescence, kanamycin, BacTiterGlo, confirmation (AID 1900); format: functional, organism-based
BJ [12] = test: cytotoxicity toward BJ-TERT-LT-ST fibroblasts, dose response, cell-based, RAS-independent, luminescence (AID 1935); format: functional; settings: Homo sapiens;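 further: BJ fibroblasts immortalized with TERT plus LT and ST oncogenes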
BJ [13] = test: cells; format: functional, cell-based; settings: Homo sapiens
[14] = target: T4, Ubiquitin-conjugating enzyme E2 N (Homo sapiens, UniProt P61088); format: functional;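 further: Dose-response confirmation in a TR-FRET assay detecting UBC13-driven polyubiquitin chain formation, inhibition measured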
T4 sequence (P61088 whole entry): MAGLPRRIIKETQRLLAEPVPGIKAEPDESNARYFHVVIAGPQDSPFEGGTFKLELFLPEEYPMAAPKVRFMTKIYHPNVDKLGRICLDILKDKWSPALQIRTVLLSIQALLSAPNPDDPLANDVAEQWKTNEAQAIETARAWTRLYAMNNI

T2 sequence (P11940 whole entry): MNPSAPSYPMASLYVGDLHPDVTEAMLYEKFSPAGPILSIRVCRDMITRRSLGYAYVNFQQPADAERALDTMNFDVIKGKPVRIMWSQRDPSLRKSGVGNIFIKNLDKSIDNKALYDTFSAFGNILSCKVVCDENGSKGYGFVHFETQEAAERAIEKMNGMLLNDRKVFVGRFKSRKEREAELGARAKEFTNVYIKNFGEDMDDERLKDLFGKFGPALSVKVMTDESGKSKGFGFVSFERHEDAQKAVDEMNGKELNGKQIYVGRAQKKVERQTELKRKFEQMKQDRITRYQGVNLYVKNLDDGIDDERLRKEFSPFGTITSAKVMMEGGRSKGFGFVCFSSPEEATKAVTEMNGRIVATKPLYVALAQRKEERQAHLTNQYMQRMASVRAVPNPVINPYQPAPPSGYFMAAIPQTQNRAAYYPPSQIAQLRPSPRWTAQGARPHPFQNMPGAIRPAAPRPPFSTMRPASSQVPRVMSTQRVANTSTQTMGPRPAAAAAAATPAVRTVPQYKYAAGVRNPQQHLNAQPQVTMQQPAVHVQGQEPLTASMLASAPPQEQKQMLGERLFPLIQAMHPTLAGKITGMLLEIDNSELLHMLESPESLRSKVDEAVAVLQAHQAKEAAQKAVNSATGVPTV
Cytochrome P450 2D6, sequence (P10635 whole entry): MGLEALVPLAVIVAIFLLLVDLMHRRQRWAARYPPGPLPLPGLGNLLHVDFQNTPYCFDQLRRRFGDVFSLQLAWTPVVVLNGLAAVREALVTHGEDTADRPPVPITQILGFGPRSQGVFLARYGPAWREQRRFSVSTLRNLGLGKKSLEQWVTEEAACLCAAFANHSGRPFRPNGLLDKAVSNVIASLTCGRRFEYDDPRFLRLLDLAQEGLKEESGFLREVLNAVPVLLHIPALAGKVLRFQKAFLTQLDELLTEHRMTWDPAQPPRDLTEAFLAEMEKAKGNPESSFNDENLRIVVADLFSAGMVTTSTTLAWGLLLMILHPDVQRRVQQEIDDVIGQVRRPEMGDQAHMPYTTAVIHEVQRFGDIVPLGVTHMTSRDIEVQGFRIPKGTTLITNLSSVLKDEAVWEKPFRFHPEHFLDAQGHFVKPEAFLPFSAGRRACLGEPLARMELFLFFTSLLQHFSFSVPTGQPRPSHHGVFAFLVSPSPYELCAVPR
Cytochrome P450 2C19, sequence (P33261 whole entry): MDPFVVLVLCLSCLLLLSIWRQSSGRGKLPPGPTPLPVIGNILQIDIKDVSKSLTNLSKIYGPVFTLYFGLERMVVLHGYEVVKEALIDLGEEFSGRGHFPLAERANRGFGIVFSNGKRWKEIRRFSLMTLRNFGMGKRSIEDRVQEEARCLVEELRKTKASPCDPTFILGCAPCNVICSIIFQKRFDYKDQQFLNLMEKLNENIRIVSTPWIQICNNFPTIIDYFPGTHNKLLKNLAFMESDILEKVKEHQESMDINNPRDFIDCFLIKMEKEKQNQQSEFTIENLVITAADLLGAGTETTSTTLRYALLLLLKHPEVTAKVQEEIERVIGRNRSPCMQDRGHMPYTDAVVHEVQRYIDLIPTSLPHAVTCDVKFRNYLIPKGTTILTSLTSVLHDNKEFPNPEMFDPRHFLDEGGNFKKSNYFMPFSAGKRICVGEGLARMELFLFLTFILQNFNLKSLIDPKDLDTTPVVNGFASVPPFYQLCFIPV

SMILES: COc1cc(NC(=O)C2=C(N3CCOCC3)/C(=C\c3ccc(Br)cc3)CC2)cc(OC)c1OC
- EC50 [1]: > 260 µM (inactive)

SMILES: Cc1cc(C)cc(Oc2ccccc2/C=C\C(=O)O)c1
- EC50 [1]: > 260 µM (inactive)

SMILES: Cc1ccc(C(=O)Nc2nnc(C3CCCCC3)s2)o1
- EC50 [1]: 44.6 µM (active)

SMILES: O=c1c2ccccc2nnn1CSc1ccc2c(c1)OCCO2
- AC50 (Cytochrome P450 2D6): 28.2 µM (inconclusive)

SMILES: c1ccc(Nc2ncncc2-c2ccoc2)cc1
- AC50 (Cytochrome P450 2C19; read-out: AC50): 15.8 µM (inconclusive)
- AC50 (Cytochrome P450 2D6): 25.1 µM (inconclusive)

SMILES: CC(=O)N1c2ccc(S(=O)(=O)NCCc3ccccc3)cc2CC1C (stereo not drawn)
- EC50 (cells [2]): > 350 µM (not active)
- EC50 (cells [3]): > 350 µM (not active)

SMILES: Cc1cc(NC(=O)c2ccccc2)n(-c2nc3ccccc3[nH]2)n1
- EC50 (cells [2]): 63.9 µM (active)
- EC50 (cells [3]): > 350 µM (not active)

SMILES: COC(=O)c1sc(N)c(C(=O)OC)c1CSc1nc2sc3c(c2c(=O)n1C)CCC3
- EC50 [1]: > 260 µM (inactive)

SMILES: COc1ccccc1CCNS(=O)(=O)c1cc2c3c(c1)C(C)C(=O)N3CCC2 (stereo not drawn)
- EC50 (cells [2]): > 350 µM (not active)
- EC50 (cells [3]): > 350 µM (not active)

SMILES: Cc1ccc(Nc2nc(CSc3nnc(-c4ccncc4)n3C)cs2)cc1
- EC50 (cells [2]): > 350 µM (not active)
- EC50 (cells [3]): > 350 µM (not active)

SMILES: CCNc1nc(Cl)nc(NNC(=O)C(C)Oc2ccccc2)n1 (stereo not drawn)
- EC50 (cells [2]): 47 µM (active)
- EC50 (cells [3]): > 350 µM (not active)

SMILES: C=CCOC(=O)/C(=C\c1cccc2ccccc12)NC(=O)c1ccccc1
- AC50 (Cytochrome P450 2D6): 22.4 µM (inconclusive)

SMILES: Cc1ccc(S(=O)(=O)N[C@H]2COC(=O)C/C=C\[C@@H](C)[C@H](NS(=O)(=O)c3ccc(C)cc3)COC(=O)[C@H](C)NC(=O)C/C=C\[C@H]2C)cc1
- AC50 (Cytochrome P450 2C19): inconclusive
- AC50 (Cytochrome P450 2D6): 3.98 µM (inconclusive)

SMILES: Cc1cc(C=O)c(C)n1-c1ccc(NC2CCCC2)c([N+](=O)[O-])c1
- AC50 (Cytochrome P450 2D6): 8.91 µM (inconclusive)

SMILES: C=CCN(C(=O)CCC(=O)Nc1cc(C)on1)C(C(=O)NC(C)(C)C)c1cccc(OC)c1OC (stereo not drawn)
- EC50 [1]: > 260 µM (inactive)

SMILES: Cc1nc2[nH]c(=S)[nH]c(=O)c2nc1C
- IC50 [4]: > 66 µM (inactive)
- IC50 [5]: > 66 µM (inactive)

SMILES: COc1cc(OCc2ccccc2)c(C(=O)/C=C/c2ccc3c(c2)OCO3)c(OC)c1OC
- CC50 (Vero): > 25 µM (active)

SMILES: COCCCN(CC(=O)O)S(=O)(=O)c1cccc(Cl)c1
- EC50 [1]: > 260 µM (inactive)

SMILES: Cc1nnc(O)c2c(NC(=O)CSc3c(Cl)cccc3Cl)oc(C)c12
- IC50 [4]: > 66 µM (inactive)
- IC50 [5]: > 66 µM (inactive)

SMILES: COc1ccc(Cl)cc1C=CC=NNS(=O)(=O)c1ccc(C)cc1
- CC50 (Vero): > 25 µM (active)

SMILES: O=C(N/N=C/c1cc(Br)c(Br)o1)c1cccnc1
- IC50 [4]: 44.3 µM (inactive)
- IC50 [5]: > 66 µM (inactive)

SMILES: N#C/C(C[n+]1cn(NC(=O)Nc2ccccc2)cn1)=N/O
- EC50 [1]: > 260 µM (inactive)

SMILES: COc1ccc(-c2c/c(=N\c3nc(-c4ccccc4)c(C)s3)c3ccccc3o2)cc1O
- EC50 (Streptococcus): > 150 µM (not active)
- EC50 [6]: 5.76 µM (inconclusive)
- EC50 (BJ [7]): 1.71 µM (active)
- EC50 [8]: 1.9 µM (active)
- EC50 [9]: 5.8 µM (active)
- EC50 (Streptokinase A): 15.5 µM (active)
- EC50 [10]: 7.32 µM (active)
- EC50 [11]: 4.5 µM (active)
- EC50 (BJ [12]): 1.82 µM (active)
- EC50 (BJ [13]): 3.22 µM (active)
- CC50 (Vero): 3.22 µM (active)

SMILES: CC(C)(C)c1ccc(C(=O)N/N=C/c2ccccn2)cc1
- EC50 (Streptococcus): 29.8 µM (active)
- IC50 [14]: > 20 µM (inactive)
- EC50 (Streptokinase A): > 150 µM (not active)
- EC50 [11]: 9.57 µM (active)

SMILES: Cc1ccc(Cc2cnc(NC(=O)c3cccs3)s2)cc1
- AC50 (Cytochrome P450 2D6): 15.8 µM (inconclusive)
